Measured values: the supplement of paper PMC10307832

How the values were obtained:
Experiment in all cases: relative viability (nuclei count vs DMSO), 5 days (fraction); higher = more cells survive
Venetoclax + Palbociclib = compound: CC1(C)CCC(CN2CCN(c3ccc(C(=O)NS(=O)(=O)c4ccc(NCC5CCOCC5)c([N+](=O)[O-])c4)c(Oc4cnc5[nH]ccc5c4)c3)CC2)=C(c2ccc(Cl)cc2)C1 [Venetoclax] + CC(=O)c1c(C)c2cnc(Nc3ccc(N4CCNCC4)cn3)nc2n(C2CCCC2)c1=O [Palbociclib] (partner 0.5 µM)
Outline: (§1)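 Lung cancer cell lines were seeded in 1536-well plates and dosed by pin tool the next day, with either a single drug or a fixed anchor-drug dose combined with five library-drug doses (not always all listed) spaced in √10 steps. Five days later, one step fixed the cells and stained their nuclei (final 0.05% Triton X-100, 1% formaldehyde, 1 ug/ml Hoechst), and nuclei were counted on 4× images. Relative viability is the nuclei count in treated wells divided by the count in vehicle wells, and each value is the median of duplicate plates.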

Selumetinib + Decitabine = compound: Cn1cnc2c(F)c(Nc3ccc(Br)cc3Cl)c(C(=O)NOCCO)cc21 [Selumetinib] + Nc1ncn([C@H]2C[C@H](O)[C@@H](CO)O2)c(=O)n1 [Decitabine] (partner 2 µM)
Outline: as §1

Venetoclax + Pemetrexed = compound: CC1(C)CCC(CN2CCN(c3ccc(C(=O)NS(=O)(=O)c4ccc(NCC5CCOCC5)c([N+](=O)[O-])c4)c(Oc4cnc5[nH]ccc5c4)c3)CC2)=C(c2ccc(Cl)cc2)C1 [Venetoclax] + Nc1nc2[nH]cc(CCc3ccc(C(=O)N[C@@H](CCC(=O)O)C(=O)O)cc3)c2c(=O)[nH]1 [Pemetrexed] (partner 0.2 µM)
Outline: as §1

Selumetinib + Alpelisib = compound: Cn1cnc2c(F)c(Nc3ccc(Br)cc3Cl)c(C(=O)NOCCO)cc21 [Selumetinib] + Cc1nc(NC(=O)N2CCC[C@H]2C(N)=O)sc1-c1ccnc(C(C)(C)C(F)(F)F)c1 [Alpelisib] (partner 2 µM)
Outline: as §1

Cell Line | relative viability (Venetoclax + Palbociclib; first compound 0.01 µM) | relative viability (Venetoclax + Palbociclib; first compound 0.03162 µM) | relative viability (Venetoclax + Palbociclib; first compound 0.1 µM) | relative viability (Venetoclax + Palbociclib; first compound 0.3162 µM) | relative viability (Venetoclax + Palbociclib; first compound 1 µM) | relative viability (Selumetinib + Decitabine; first compound 0.02 µM) | relative viability (Selumetinib + Decitabine; first compound 0.06325 µM) | relative viability (Selumetinib + Decitabine; first compound 0.2 µM) | relative viability (Selumetinib + Decitabine; first compound 0.6325 µM) | relative viability (Venetoclax + Pemetrexed; first compound 0.01 µM) | relative viability (Venetoclax + Pemetrexed; first compound 0.03162 µM) | relative viability (Venetoclax + Pemetrexed; first compound 0.1 µM) | relative viability (Venetoclax + Pemetrexed; first compound 0.3162 µM) | relative viability (Venetoclax + Pemetrexed; first compound 1 µM) | relative viability (Selumetinib + Alpelisib; first compound 0.02 µM) | relative viability (Selumetinib + Alpelisib; first compound 0.06325 µM) | relative viability (Selumetinib + Alpelisib; first compound 0.2 µM) | relative viability (Selumetinib + Alpelisib; first compound 0.6325 µM)
NCI-H2009 | 0.264 | 0.228 | 0.258 | 0.216 | 0.203 | 0.354 | 0.292 | 0.35 | 0.279 | 0.989 | 1.04 | 1.05 | 1 | 0.961 | 0.99 | 0.713 | 0.519 | 0.486
CAL-12T | 0.401 | 0.565 | 0.384 | 0.453 | 0.314 | – | – | – | – | 0.965 | 1.23 | 1.14 | 1.22 | 1.19 | 1.22 | 0.823 | 0.895 | 0.817
HCC-78 | 0.456 | 0.534 | 0.437 | 0.433 | 0.469 | 0.819 | 0.759 | 0.779 | 0.685 | 0.896 | 0.875 | 0.965 | 0.935 | 0.881 | 0.286 | 0.321 | 0.219 | 0.298
EKVX | 0.438 | 0.397 | 0.378 | 0.331 | 0.363 | 0.339 | 0.29 | 0.37 | 0.339 | 0.471 | 0.402 | 0.351 | 0.427 | 0.35 | 0.678 | 0.711 | 0.61 | 0.448
NCI-H1703 | – | – | – | – | – | – | – | – | – | – | – | – | – | – | 0.368 | 0.25 | 0.327 | 0.314
NCI-H1944 | 0.401 | 0.314 | 0.314 | 0.288 | 0.299 | 0.433 | 0.456 | 0.397 | 0.426 | 0.669 | 0.592 | 0.571 | 0.607 | 0.589 | 0.71 | 0.677 | 0.594 | 0.52
NCI-H1755 | 0.463 | 0.469 | 0.481 | 0.461 | 0.448 | 0.716 | 0.729 | 0.662 | 0.73 | 0.39 | 0.475 | 0.397 | 0.441 | 0.407 | 0.896 | 0.845 | 0.783 | 0.856
Calu-6 | – | – | – | – | – | – | – | – | – | – | – | – | – | – | 0.936 | 0.613 | 0.486 | 0.346
EBC-1 | – | – | – | – | – | – | – | – | – | – | – | – | – | – | 0.779 | 0.591 | 0.556 | 0.361
EPLC-272H | 0.351 | 0.298 | 0.345 | 0.338 | 0.318 | 0.364 | 0.339 | 0.346 | 0.294 | 0.361 | 0.316 | 0.356 | 0.412 | 0.36 | 0.749 | 0.656 | 0.58 | 0.66
A-427 | 0.469 | 0.595 | 0.498 | 0.507 | 0.516 | 0.537 | 0.575 | 0.53 | 0.55 | 0.988 | 0.967 | 1.03 | 1.04 | 0.978 | 1.06 | 1.05 | 0.936 | 0.817
NCI-H3122 | 0.249 | 0.226 | 0.185 | 0.18 | 0.204 | 0.401 | 0.394 | 0.401 | 0.452 | 0.179 | 0.2 | 0.199 | 0.188 | 0.198 | 0.551 | 0.492 | 0.353 | 0.366
NCI-H1563 | – | – | – | – | – | – | – | – | – | 0.847 | 0.902 | 0.798 | 0.744 | 0.888 | 0.969 | 0.838 | 0.964 | 0.877
NCI-H358 | 0.131 | 0.114 | 0.13 | 0.13 | 0.131 | 0.194 | 0.181 | 0.193 | 0.158 | 0.176 | 0.176 | 0.187 | 0.178 | 0.179 | 0.645 | 0.472 | 0.39 | 0.305
SK-LU-1 | 0.405 | 0.403 | 0.35 | 0.403 | 0.372 | 0.793 | 0.65 | 0.572 | 0.438 | 0.97 | 1.05 | 1.03 | 0.966 | 0.867 | 1.01 | 0.988 | 0.838 | 0.542
NCI-H2347 | 0.41 | 0.388 | 0.322 | 0.483 | 0.414 | 0.571 | 0.585 | 0.49 | 0.34 | 0.486 | 0.425 | 0.437 | 0.438 | 0.444 | 0.832 | 0.613 | 0.445 | 0.387
IA-LM | – | – | – | – | – | – | – | – | – | – | – | – | – | – | 0.431 | 0.237 | 0.216 | 0.191
HCC-15 | 0.755 | 0.672 | 0.419 | 0.655 | 0.508 | 0.556 | 0.449 | 0.438 | 0.392 | 0.24 | 0.236 | 0.217 | 0.217 | 0.201 | 0.683 | 0.405 | 0.347 | 0.19
PC-3 [JPC-3] | 0.561 | 0.533 | 0.583 | 0.558 | 0.517 | 0.786 | 0.745 | 0.796 | 0.798 | 1.05 | 1.45 | 1.18 | 1.26 | 1.01 | 1.02 | 0.935 | 0.9 | 0.752
NCI-H1915 | 0.477 | 0.558 | 0.541 | 0.524 | 0.495 | 0.28 | 0.263 | 0.239 | 0.246 | 0.405 | 0.499 | 0.484 | 0.517 | 0.476 | 1.02 | 0.936 | 0.692 | 0.49
HCC-827 | 0.526 | 0.627 | 0.463 | 0.442 | 0.534 | 0.362 | 0.317 | 0.351 | 0.448 | 0.239 | 0.289 | 0.25 | 0.269 | 0.28 | 0.961 | 0.786 | 0.863 | 0.791
